Measured values as given in patent US8399511B2, “Two types of crystalline of pinocembrin, their preparation and their use for manufacture of pharmaceutical compositions” (CSPC Zhongqi Pharmaceutical Technology (Shijiazhuang) Co., …, priority 2008, dated 2013).

Assay: In vivo absorption and blood concentration after oral administration of pinocembrin crystalline forms
Design: species or system SD rats
Conditions: for Blood concentration of pinocembrin: fasted SD rats, arterial blood, HPLC, group average, 50 mg/kg
Description: • 1. Monocrystal X-ray analysis • Instrument: MAC DIP-2030K area detector • Test condition: tube voltage: 50 KV, tube flow: 80 mA, ω scanning, MoKα, 2θ≦50.0°, scan range: 0-180°, pivot angle: 6°, step: 6°, scan rate: 1.8°/min. • 2. Powder X-ray analysis • Instrument: Rigaku D/max 2550 powder X-ray diffractometer • Test conditions: voltage: 40 KV, current: 150 mA, scan rate: 8°/min. • 3. DSC analysis • Instrument type: Seiko Instruments Inc. Differential Scanning Calorimeter • Test conditions: purge gas: N2, heating rate: 10° C. /min. • Temperature range: 25-250° C. • 4. IR absorbance spectra • Instrument Nicolet FT-IR spectrometer: IMPACT 400 • Test conditions: KBr pellet • 5. HPCL analysis • Instrument: SHIMADZU LC-10Avp high performance liquid chromatography, SPD-M10Avp diode array detector, CLASS-VP chromatography data system; column: Alltch C18(5μ, 150×4.6 mm); test conditions: column temperature: room temperature; wavelength: 290 nm; mobile phase: methanol/phosphate saline pH 3.0 (64/36); flow rate : 1.0 mL/min; injection volume: 20 μL; injection concentration: 500.0 μg/mL Preparation 1: Synthesis of Pinocembrin Sample
18 of SD rats, female and male each half, with body weight of 230˜250 g, were randomized into 3 groups, with 6 rats each group and female half. After 10 hours of fasting but free water intake, the rats were administrated with pinocembrin solid active ingredient powder of α, β or 1:1 (α+β) mixed crystalline forms, at a dose of 50 mg/kg to stomach. Then the arterial blood samples at different times were taken and the contents of pinocembrin were determined.

[1] = 10 min after oral (to stomach) 50 mg/kg solid powder
[2] = 20 min after oral (to stomach) 50 mg/kg solid powder
[3] = 30 min after oral (to stomach) 50 mg/kg solid powder
[4] = 40 min after oral (to stomach) 50 mg/kg solid powder

SMILES | Blood concentration of pinocembrin [1] [peak area value] | Blood concentration of pinocembrin [2] [peak area value] | Blood concentration of pinocembrin [3] [peak area value] | Blood concentration of pinocembrin [4] [peak area value] | Blood concentration compared with β crystalline form (same dosage (50 mg/kg) by oral administration, rats) | Blood concentration of pinocembrin (10 min after oral (to stomach) 50 mg/kg solid powder, listed as β crystalline from) [peak area value] | Blood concentration of pinocembrin (20 min after oral (to stomach) 50 mg/kg solid powder, listed as β crystalline from) [peak area value] | Blood concentration of pinocembrin (30 min after oral (to stomach) 50 mg/kg solid powder, listed as β crystalline from) [peak area value] | Blood concentration of pinocembrin (40 min after oral (to stomach) 50 mg/kg solid powder, listed as β crystalline from) [peak area value] | Uptake rate by organism relative to α crystalline form (rat, in vivo) [times]
O=C1C[C@@H](c2ccccc2)Oc2cc(O)cc(O)c21 (stereo in doubt) [1:1 (α + β) crystalline forms, 5,7-dihydroxy-2-phenyl-4-chromanone] | 8.5 | 15.6 | 7.9 | 7.1 | – | – | – | – | – | –
O=C1C[C@@H](c2ccccc2)Oc2cc(O)cc(O)c21 (stereo in doubt) [α crystalline form, 5,7-dihydroxy-2-phenyl-4-chromanone] | 3.8 | 9.7 | 4.4 | 3.5 | obviously lower | – | – | – | – | –
O=C1C[C@@H](c2ccccc2)Oc2cc(O)cc(O)c21 (stereo in doubt) [β crystalline form, 5,7-dihydroxy-2-phenyl-4-chromanone] | – | – | – | – | – | 13.2 | 48.6 | 14.6 | 14.2 | ≥ 2
